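Five concentrations, 48 hours, 96-well plates. GI50 marks 50% less growth.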 Activity calls are given as the source filed them. No stated cut-off is given here; in the data, active = GI50 up to about 1.1 µM and inactive = higher.
What was measured:
Experiment in all cases: DTP human tumour cell line panel, 48 h
IGROV-1 = test system: IGROV-1
NCI-H460 = test system: NCI-H460
RPMI-8226 = test system: RPMI-8226
MOLT-4 = test system: MOLT-4
SW-620 = test system: SW-620
SK-MEL-5 = test system: SK-MEL-5
ACHN = test system: ACHN
SK-MEL-28 = test system: SK-MEL-28
MCF7 = test system: MCF7
K562 = test system: K562
MDA-MB-435 = test system: MDA-MB-435
HOP-62 = test system: HOP-62
OVCAR-8 = test system: OVCAR-8
MDA-MB-231 = test system: MDA-MB-231
CAKI-1 = test system: CAKI-1
SF-295 = test system: SF-295
HCT-15 = test system: HCT-15
786-0 = test system: 786-0
CCRF-CEM = test system: CCRF-CEM
A498 = test system: A498
HCT-116 = test system: HCT-116
SN12C = test system: SN12C
COLO 205 = test system: COLO 205
UO-31 = test system: UO-31
Hs-578T = test system: Hs-578T
SF-539 = test system: SF-539
DU-145 = test system: DU-145
HOP-92 = test system: HOP-92
UACC-257 = test system: UACC-257
OVCAR-5 = test system: OVCAR-5
PC-3 = test system: PC-3
RXF 393 = test system: RXF 393
T47D = test system: T47D
LOX IMVI = test system: LOX IMVI
SNB-75 = test system: SNB-75
OVCAR-3 = test system: OVCAR-3
NCI/ADR-RES = test system: NCI/ADR-RES
SF-268 = test system: SF-268
HCC 2998 = test system: HCC 2998
HL-60 = test system: HL-60
A549 = test system: A549
NCI-H226 = test system: NCI-H226
SR = test system: SR
NCI-H23 = test system: NCI-H23
HT-29 = test system: HT-29
OVCAR-4 = test system: OVCAR-4
SK-OV-3 = test system: SK-OV-3
NCI-H522 = test system: NCI-H522
SNB-19 = test system: SNB-19
EKVX = test system: EKVX
MDA-N = test system: MDA-N
Malme-3M = test system: Malme-3M
U-251 = test system: U-251
UACC-62 = test system: UACC-62
SK-MEL-2 = test system: SK-MEL-2
KM12 = test system: KM12
TK-10 = test system: TK-10
M14 = test system: M14
BT-549 = test system: BT-549

With `COC(=O)/C=C\C(C#N)(C#N)/N=C/c1ccc(C)cc1` the GI50 (IGROV-1) was 13.1 µM (inactive), the GI50 (NCI-H460) was 19.6 µM (inactive) and the GI50 (RPMI-8226) was 0.586 µM (active). The GI50 (MOLT-4) was 0.778 µM (active), the GI50 (SW-620) was 1.95 µM (inactive) and the GI50 (SK-MEL-5) was 12.6 µM (inactive). For the same molecule, the GI50 (ACHN) was 2.3 µM (inactive), the GI50 (SK-MEL-28) was 5.5 µM (inactive) and the GI50 (MCF7) was 1.67 µM (inactive). For the same molecule, the GI50 (K562) was 3.04 µM (inactive), the GI50 (MDA-MB-435) was 2.21 µM (inactive) and the GI50 (HOP-62) was 19.3 µM (inactive). For the same molecule, the GI50 (OVCAR-8) was 2.25 µM (inactive), the GI50 (MDA-MB-231) was 15.5 µM (inactive) and the GI50 (CAKI-1) was 2.59 µM (inactive). The GI50 (SF-295) was 25.2 µM (inactive), the GI50 (HCT-15) was 2.56 µM and the GI50 (786-0) was 1.6 µM (inactive). The GI50 (CCRF-CEM) was 0.0673 µM (active), the GI50 (A498) was 17.7 µM (inactive) and the GI50 (HCT-116) was 1.76 µM (inactive). For the same molecule, the GI50 (SN12C) was 13.2 µM (inactive), the GI50 (COLO 205) was 1.97 µM (inactive) and the GI50 (UO-31) was 2.49 µM (inactive). The GI50 (Hs-578T) was 20.5 µM (inactive), the GI50 (SF-539) was 4.38 µM (inactive) and the GI50 (DU-145) was 5.86 µM (inactive). The GI50 (HOP-92) was 1.09 µM (active), the GI50 (UACC-257) was 4.24 µM (inactive) and the GI50 (OVCAR-5) was 19.7 µM (inactive). For the same molecule, the GI50 (PC-3) was 6.44 µM (inactive), the GI50 (RXF 393) was 1.9 µM (inactive) and the GI50 (T47D) was 1.79 µM (inactive). For the same molecule, the GI50 (LOX IMVI) was 2.33 µM (inactive), the GI50 (SNB-75) was 15.3 µM (inactive) and the GI50 (OVCAR-3) was 2.6 µM (inactive). The GI50 (NCI/ADR-RES) was 3.1 µM (inactive), the GI50 (SF-268) was 3.78 µM (inactive) and the GI50 (HCC 2998) was 18.2 µM (inactive). The GI50 (HL-60) was 2.52 µM (inactive), the GI50 (A549) was 17.7 µM (inactive) and the GI50 (NCI-H226) was 8.75 µM (inactive). For the same molecule, the GI50 (SR) was 0.706 µM (active), the GI50 (NCI-H23) was 5.57 µM (inactive) and the GI50 (HT-29) was 3.8 µM (inactive). For the same molecule, the GI50 (OVCAR-4) was 3.89 µM (inactive), the GI50 (SK-OV-3) was 17.6 µM (inactive) and the GI50 (NCI-H522) was 0.378 µM (active). For the same molecule, the GI50 (SNB-19) was 19.5 µM (inactive), the GI50 (EKVX) was 14.4 µM (inactive) and the GI50 (MDA-N) was 4.06 µM (inactive). The GI50 (Malme-3M) was 2.28 µM (inactive), the GI50 (U-251) was 13 µM (inactive) and the GI50 (UACC-62) was 14.9 µM (inactive). For the same molecule, the GI50 (SK-MEL-2) was 16.3 µM (inactive), the GI50 (KM12) was 18 µM (inactive) and the GI50 (TK-10) was 1.8 µM (inactive). For the same molecule, the GI50 (M14) was 2.01 µM (inactive) and the GI50 (BT-549) was 5.02 µM (inactive).
